This is an account of results in ChEMBL document CHEMBL1145671, “Cactus Alkaloids. LIII. Coryphanthine and O-Methyl-Candicine, Two New Quaternary Alkaloids from Coryphantha greenwoodii” (J Nat Prod, 1983).

Where a name gives a salt, the structure may show the parent alone.

For one data set, the system named is Artemia. The experiment in a line: (§1) Toxicity against brine shrimp assessed as impaired swimming movements after 24 hrs. Particulars: Artemia, 24 h. The data set is classed as organism-based.
For the compound `C[N+](C)(C)CCO.[Cl-]` [CHOLINE CHLORIDE], the IC50 is over 1000 µg/mL.
As for `C[N+](C)(C)CC(O)c1ccccc1.[Cl-]` (centres undefined), the half-inhibitory concentration (IC50) was over 1000 µg/mL.

Still in this data set, the particulars now being: artemia, in vivo, 24 h.
Turning to `CO[C@H](C[N+](C)(C)C)c1ccccc1.[Cl-]` [CORYPHANTHINE CHLORIDE], the median lethal concentration (LC50) is 494 µg/mL.

Tested on in the next data set: not listed separately
Described as §1. The data set is classed as organism-based, Artemia. Particulars: artemia, in vivo.
As to `COC(C[N+](C)(C)C)c1ccccc1` (racemic), the LC50 at 24 h is 368 µg/mL.
Consider `COc1ccc(CC[N+](C)(C)C)cc1`, for which the LC50 at 24 h turned out to be 425 µg/mL.
Regarding `O=C1C[C@@H]2OCC=C3CN4CC[C@]56c7ccccc7N1[C@H]5[C@H]2[C@H]3C[C@H]46` [STRYCHNINE SULFATE], the LC50 at 24 h stood at 164 µg/mL.
In the case of `C[N+](C)(C)CCc1ccc(O)cc1` [CANDICINE CHLORIDE], the LC50 at 24 h is 923 µg/mL.
As for `CO[C@H](C[N+](C)(C)C)c1ccccc1`, the LC50 at 24 h is 354 µg/mL.
Consider `CN1CCC[C@H]1c1cccnc1` [NICOTINE HYDROCHLORIDE], for which the LC50 at 24 h came out at 158 µg/mL.

In general, IC50 refers to the concentration that inhibits the measured activity by half. A word on the LC50: it is the concentration that kills 50% of the test population.
